Measurements published in ChEMBL document CHEMBL1128829, “Synthesis and pharmacological activities of a novel tripeptide mimetic dopamine prodrug” (Bioorg Med Chem Lett, 1995).
Where a SMILES comes first, the peptide text is derived from it.

Assays:
Rattus norvegicus [1] = organism: Rattus norvegicus; assay: Percent recovery after 90 min of incubation in a rat intestinal mucosa suspension at 37 degree Centigrade; type: functional, organism-based
Rattus norvegicus [2] = organism: Rattus norvegicus; assay: Dimensionless membrane permeability (Pm) from in situ single-pass rat jejunal perfusion at a concentration of 0.1 mM; type: functional, organism-based
[3] = Net water uptake by a carrier mediated transport (%cm) mechanism; type: ADME; details: buffer
Rattus norvegicus [4] = assay: Reduction of (+)-methamphetamine-induced rotational counts on unilateral-lesion rats at a dose of 9.60 mg/Kg after 1 h; type: functional
Rattus norvegicus [5] = assay: Reduction of (+)-methamphetamine-induced rotational counts on unilateral-lesion rats at a dose of 9.60 mg/Kg after 2 h; type: functional
Rattus norvegicus [6] = organism: Rattus norvegicus; assay: Percent recovery after 2 min of incubation in a rat intestinal mucosa suspension at 37 degree Centigrade; type: functional, organism-based
Rattus norvegicus [7] = assay: Reduction of (+)-methamphetamine-induced rotational counts on unilateral-lesion rats at a dose of 4.20 mg/Kg after 1 h; type: functional
[8] = Percent of oral bioavailability up to 1000 mg/day; type: ADME, organism-based; details: eutheria, in vivo

| Activity [3] [%] | bioavailability [8] [%] | Structure (SMILES) | Recovery (Rattus norvegicus [1]) [%] | Permeability (Rattus norvegicus [2]) | Counts of rotation (Rattus norvegicus [4]) [turns hr-1] | Counts of rotation (Rattus norvegicus [5]) [turns hr-1] | Recovery (Rattus norvegicus [6]) [%] | Counts of rotation (Rattus norvegicus [7]) [turns hr-1] |
| --- | --- | --- | --- | --- | --- | --- | --- | --- |
| 1.64 | – | N[C@@H](C(=O)N1CCC[C@H]1C(=O)N[C@H](Cc1ccc(O)c(O)c1)C(=O)O)c1ccc(O)cc1 | 95 | 1.53 | 223 | 247 | – | – |
| – | – | NCC(=O)N[C@@H](Cc1ccccc1)C(=O)O (H-Gly-Phe-OH) | – | – | – | – | 19 | – |
| 0.03 | 33 | N[C@@H](Cc1ccc(O)c(O)c1)C(=O)O [LEVODOPA] | – | 5.38 | – | – | – | 287 |
